Experimental findings from patent US10189839B2, “Tricyclic imidazole compounds as inhibitors of tryptophan hydroxylase” (ACTELION PHARMACEUTICALS LTD, priority 2013, dated 2019) are described below.

As a reminder, the IC50 is the concentration at which inhibition is half-maximal. Low values mean greater potency, high ones weaker potency.

The test deals with T1, full length human TPH1 (Homo sapiens, UniProt P17752).
T1 construct: To generate the enzyme, full length human TPH1 is cloned into the plasmid pET20b(+); made in house; host or cells: E. coli
T1 sequence (P17752 1-444): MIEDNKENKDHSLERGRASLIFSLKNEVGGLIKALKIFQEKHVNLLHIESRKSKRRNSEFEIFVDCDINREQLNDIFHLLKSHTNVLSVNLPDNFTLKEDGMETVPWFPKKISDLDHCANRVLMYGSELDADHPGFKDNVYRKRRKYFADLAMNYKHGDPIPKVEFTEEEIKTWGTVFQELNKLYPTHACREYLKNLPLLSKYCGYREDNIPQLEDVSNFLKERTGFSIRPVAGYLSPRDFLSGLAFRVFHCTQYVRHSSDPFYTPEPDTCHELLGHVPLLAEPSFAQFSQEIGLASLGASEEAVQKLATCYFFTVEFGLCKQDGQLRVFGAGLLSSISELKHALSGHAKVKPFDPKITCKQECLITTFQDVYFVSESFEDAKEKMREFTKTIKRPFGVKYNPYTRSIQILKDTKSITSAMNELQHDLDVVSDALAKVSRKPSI
The experiment in a line: Biochemical in vitro assay using fluorescence readout (TPH1 enzyme activity). The conditions noted are these: Table 1, mean where determined several times. The gist of the method:
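E. coli-expressed full-length human TPH1 (40-80 nM), affinity- and size-exclusion-purified, incubated 60 min at 15° C. in 0.1M Tris-HCl pH 7.6 with 1 mM DTT, 0.2 mg/ml catalase, 100 μM 6-methyltetrahydropterine and 40 μM L-tryptophan. 5-Hydroxy-L-tryptophan read by fluorescence (ex 300/em 540 nm) after HClO4 quench; IC50 versus vehicle, mean where repeated.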
Turning to `CCc1nc(NS(C)(=O)=O)ncc1OCC(=O)N1CCc2nc3n(c2C1c1ccc(C2CC2)cc1F)CCS3` (stereo not shown) [Example 4.3.4, N-(5-(2-(5-(4-cyclopropyl-2-fluorophenyl)-2,3,7,8-tetrahydrothiazolo[2′,3′:2,3]imidazo[4,5-c]pyridin-6(5H)-yl)-2-oxoethoxy)-4-ethylpyrimidin-2-yl)methanesulfonamide], the IC50 was 25 nM.
The figure for `CCc1nc(NS(C)(=O)=O)ccc1OCC(=O)N1CCc2nc3n(c2C1c1ccc(C)c(F)c1F)CCS3` (stereo not shown) [Example 4.4.1, N-(5-(2-(5-(2,3-difluoro-4-methylphenyl)-2,3,7,8-tetrahydrothiazolo[2′,3′:2,3]imidazo[4,5-c]pyridin-6(5H)-yl)-2-oxoethoxy)-6-ethylpyridin-2-yl)methanesulfonamide] is 6 nM; for `Cc1ccc(C2c3c(nc4n3CCS4)CCN2C(=O)COc2ccc(C(=O)NC3CC3)nc2Cl)c(F)c1F` (stereo not shown) [Example 4.4.2, 6-chloro-N-cyclopropyl-5-(2-(5-(2,3-difluoro-4-methylphenyl)-2,3,7,8-tetrahydrothiazolo[2′,3′:2,3]imidazo[4,5-c]pyridin-6(5H)-yl)-2-oxoethoxy)picolinamide] it is 15 nM.
`CCc1nc(NS(C)(=O)=O)ccc1OCC(=O)N1CCc2nc3n(c2C1c1sc(C)nc1C)CCS3` (stereo not shown) [Example 4.5.1, N-(5-(2-(5-(2,4-dimethylthiazol-5-yl)-2,3,7,8-tetrahydrothiazolo[2′,3′:2,3]imidazo[4,5-c]pyridin-6(5H)-yl)-2-oxoethoxy)-6-ethylpyridin-2-yl)methanesulfonamide] registered a concentration for half-maximal inhibition (IC50) of 16 nM.
For the molecule `CCc1nc(N2CCCS2(=O)=O)ccc1OCC(=O)N1CCc2nc3n(c2C1c1sc(C)nc1C)CCS3` (stereo not shown) [Example 4.5.2, 1-(5-(2,4-dimethylthiazol-5-yl)-2,3,7,8-tetrahydrothiazolo[2′,3′:2,3]imidazo[4,5-c]pyridin-6(5H)-yl)-2-((6-(1,1-dioxidoisothiazolidin-2-yl)-2-ethylpyridin-3-yl)oxy)ethanone], the half-maximal inhibitory concentration (IC50) worked out at 10 nM.
The figure for `CCc1nc(C(=O)NC2CC2)ccc1OCC(=O)N1CCc2nc3n(c2C1c1sc(C)nc1C)CCS3` (stereo not shown) [Example 4.5.3, N-cyclopropyl-5-(2-(5-(2,4-dimethylthiazol-5-yl)-2,3,7,8-tetrahydrothiazolo[2′,3′:2,3]imidazo[4,5-c]pyridin-6(5H)-yl)-2-oxoethoxy)-6-ethylpicolinamide] is 6 nM.
The figure for `CN(C)C(=O)c1ccc(OCC(=O)N2CCc3nc4n(c3C2c2sccc2F)CCS4)c(Cl)n1` (stereo not shown) [Example 4.6.1, 6-chloro-5-(2-(5-(3-fluorothiophen-2-yl)-2,3,7,8-tetrahydrothiazolo[2′,3′:2,3]imidazo[4,5-c]pyridin-6(5H)-yl)-2-oxoethoxy)-N,N-dimethylpicolinamide] is 28 nM.
Then `CS(=O)(=O)Nc1ccc(OCC(=O)N2CCc3nc4n(c3C2c2sccc2F)CCS4)c(Cl)n1` (stereo not shown) [Example 4.6.2, N-(6-chloro-5-(2-(5-(3-fluorothiophen-2-yl)-2,3,7,8-tetrahydrothiazolo[2′,3′:2,3]imidazo[4,5-c]pyridin-6(5H)-yl)-2-oxoethoxy)pyridin-2-yl)methanesulfonamide], with 58 nM; and `CCc1nc(NS(C)(=O)=O)ccc1OCC(=O)N1CCc2nc3n(c2C1c1sccc1F)CCS3` (stereo not shown) [Example 4.6.3, N-(6-ethyl-5-(2-(5-(3-fluorothiophen-2-yl)-2,3,7,8-tetrahydrothiazolo[2′,3′:2,3]imidazo[4,5-c]pyridin-6(5H)-yl)-2-oxoethoxy)pyridin-2-yl)methanesulfonamide], with 19 nM.
Regarding `CCc1nc(NS(C)(=O)=O)ccc1OCC(=O)N1CCc2nc3n(c2C1c1cc(F)c(C)cc1F)CCS3` (stereo not shown) [Example 4.7.1, N-(5-(2-(5-(2,5-difluoro-4-methylphenyl)-2,3,7,8-tetrahydrothiazolo[2′,3′:2,3]imidazo[4,5-c]pyridin-6(5H)-yl)-2-oxoethoxy)-6-ethylpyridin-2-yl)methanesulfonamide], the IC50 was determined as 6 nM.
Then `CC(=O)N1CCn2c(nc3c2C(c2ccc(Cl)cc2F)N(C(=O)COc2ccc(N4CC(F)(F)C4)nc2Cl)CC3)C1` (stereo not shown) [Example 5.1.1, 1-(7-acetyl-1-(4-chloro-2-fluorophenyl)-3,4,6,7,8,9-hexahydropyrido[4′,3′:4,5]imida-zo[1,2-a]pyrazin-2(1H)-yl)-2-((2-chloro-6-(3,3-difluoroazetidin-1-yl)pyridin-3-yl)oxy)ethanone], with 7 nM.
Then `CNC(=O)c1ccc(OCC(=O)N2CCc3nc4n(c3C2c2ccc(Cl)cc2F)CCN(C(C)=O)C4)c(Cl)n1` (stereo not shown) [Example 5.1.2, 5-(2-(7-acetyl-1-(4-chloro-2-fluorophenyl)-3,4,6,7,8,9-hexahydropyrido[4′,3′:4,5]imida-zo[1,2-a]pyrazin-2(1H)-yl)-2-oxoethoxy)-6-chloro-N-methylpicolinamide], with 13 nM.
`CC(=O)N1CCn2c(nc3c2C(c2ccc(Cl)cc2F)N(C(=O)COc2ccc(C(=O)N(C)C)nc2Cl)CC3)C1` (stereo not shown) [Example 5.1.3, 5-(2-(7-acetyl-1-(4-chloro-2-fluorophenyl)-3,4,6,7,8,9-hexahydropyrido[4′,3′:4,5]imidazo[1,2-a]pyrazin-2(1H)-yl)-2-oxoethoxy)-6-chloro-N,N-dimethylpicolinamide] displayed a half-maximal inhibitory concentration (IC50) of 11 nM.
The figure for `CN(C)C(=O)c1ccc(OCC(=O)N2CCc3nc4n(c3C2c2ccc(Cl)cc2F)CCN(C2CC2)C4)c(Cl)n1` (stereo not shown) [Example 5.1.4, 6-chloro-5-(2-(1-(4-chloro-2-fluorophenyl)-7-cyclopropyl-3,4,6,7,8,9-hexahydropyrido[4′,3′:4,5]imidazo[1,2-a]pyrazin-2(1H)-yl)-2-oxoethoxy)-N,N-dimethylpicolinamide] is 41 nM; for `CCc1nc(C)ccc1OCC(=O)N1CCc2nc3n(c2C1c1ccc(C2CC2)cc1F)CCN(C(=O)OC(C)(C)C)C3` (stereo not shown) [Example 5.2.1, tert-butyl 1-(4-cyclopropyl-2-fluorophenyl)-2-(2-((2-ethyl-6-methylpyridin-3-yl)oxy)acetyl)-1,2,3,4,8,9-hexahydropyrido[4′,3′:4,5]imidazo[1,2-a]pyrazine-7(6H)-carboxylate] it is 74 nM.
Then `CC(C)(C)OC(=O)N1CCn2c(nc3c2C(c2ccc(C4CC4)cc2F)N(C(=O)COc2ccc(N4CCOCC4)cc2Cl)CC3)C1` (stereo not shown) [Example 5.2.2, tert-butyl 2-(2-(2-chloro-4-morpholinophenoxy)acetyl)-1-(4-cyclopropyl-2-fluorophenyl)-1,2,3,4,8,9-hexahydropyrido[4′,3′:4,5]imidazo[1,2-a]pyrazine-7(6H)-carboxylate], with 121 nM.
The figure for `CCc1nc(C)ccc1OCC(=O)N1CCc2nc3n(c2C1c1ccc(C2CC2)cc1F)CCNC3` (stereo not shown) [Example 5.2.3, 1-(1-(4-cyclopropyl-2-fluorophenyl)-3,4,6,7,8,9-hexahydropyrido[4′,3′:4,5]imidazo[1,2-a]pyrazin-2(1H)-yl)-2-((2-ethyl-6-methylpyridin-3-yl)oxy)ethanone] is 54 nM.
`O=C(COc1ccc(N2CCOCC2)cc1Cl)N1CCc2nc3n(c2C1c1ccc(C2CC2)cc1F)CCNC3` (stereo not shown) [Example 5.2.4, 2-(2-chloro-4-morpholinophenoxy)-1-(1-(4-cyclopropyl-2-fluorophenyl)-3,4,6,7,8,9-hexahydropyrido[4′,3′:4,5]imidazo[1,2-a]pyrazin-2(1H)-yl)ethanone] had an IC50 of 24 nM.
The figure for `CC(=O)N1CCn2c(nc3c2C(c2ccc(C4CC4)cc2F)N(C(=O)COc2ccc(N4CCOCC4)cc2Cl)CC3)C1` (stereo not shown) [Example 5.2.5, 1-(7-acetyl-1-(4-cyclopropyl-2-fluorophenyl)-3,4,6,7,8,9-hexahydropyrido[4′,3′:4,5]imidazo[1,2-a]pyrazin-2(1H)-yl)-2-(2-chloro-4-morpholinophenoxy)ethanone] is 7 nM; for `CCc1nc(C)ccc1OCC(=O)N1CCc2nc3n(c2C1c1ccc(C2CC2)cc1F)CCN(CC1CC1)C3` (stereo not shown) [Example 5.2.6, 1-(1-(4-cyclopropyl-2-fluorophenyl)-7-(cyclopropyl-methyl)-3,4,6,7,8,9-hexahydropyrido[4′,3′:4,5]imida-zo[1,2-a]pyrazin-2(1H)-yl)-2-((2-ethyl-6-methylpyridin-3-yl)oxy)ethanone] it is 16 nM.
Then `O=C(COc1ccc(N2CCOCC2)cc1Cl)N1CCc2nc3n(c2C1c1ccc(C2CC2)cc1F)CCN(CC1CC1)C3` (stereo not shown) [Example 5.2.7, 2-(2-chloro-4-morpholinophenoxy)-1-(1-(4-cyclopropyl-2-fluorophenyl)-7-(cyclopropylmethyl)-3,4,6,7,8,9-hexahydropyrido[4′,3′:4,5]imidazo[1,2-a]pyrazin-2(1H)-yl)ethanone], with 8 nM.
`CC(=O)N1CCn2c(nc3c2C(c2ccc(C4CC4)cc2F)N(C(=O)COc2ccc(N4CCOCC4)nc2Cl)CC3)C1` (stereo not shown) [Example 5.2.8, 1-(7-acetyl-1-(4-cyclopropyl-2-fluorophenyl)-3,4,6,7,8,9-hexahydropyrido[4′,3′:4,5]imidazo[1,2-a]pyrazin-2(1H)-yl)-2-((2-chloro-6-morpholinopyridin-3-yl)oxy)ethanone] showed an IC50 of 5 nM.
